The text below walks through data of patent publication US11076594B2, “Pyrazolone compound or salt thereof, preparation method therefor, herbicide composition and use thereof” (QINGDAO KINGAGROOT CHEMICAL COMPOUNDS CO., LTD., priority 2015, dated 2021).

What all share (assay type): in vivo
Common to all, as to details: post-emergence spray at 4-5 leaf stage, 250 g/ha active ingredient with 450 kg/ha water, rated after 3 weeks in greenhouse

One series has as its system Indian mallow. The series is described as follows: weed control effect in post-emergence stage (Table 1). Set-up: key: Level 10: completely dead; Level 9: above 95% growth control rate; Level 8: above 90% growth control rate; Level 7: above 80% growth control rate; Level 6: above 70% growth control rate; Level 5: above 60% growth control rate; Level 4: above 50% growth control rate; Level 3: above 20% growth control rate; Level 2: 5%-20% growth control rate; Level 1: below 5% growth control rate. A digest of the protocol: (§1)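 Greenhouse pot test; foliar spray at 4-5 leaf stage; acetone + Tween 80 + water formulation; 3 wk post-treatment fresh-weight control rate.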

In another series the test system is bidens bipinnata. Described as above. Also on record: key: Level 10: completely dead; Level 9: above 95% growth control rate; Level 8: above 90% growth control rate; Level 7: above 80% growth control rate; Level 6: above 70% growth control rate; Level 5: above 60% growth control rate; Level 4: above 50% growth control rate; Level 3: above 20% growth control rate; Level 2: 5%-20% growth control rate; Level 1: below 5% growth control rate. In outline: as §1

The subject of another series is crab grass. Described as above. Set-up: key: Level 10: completely dead; Level 9: above 95% growth control rate; Level 8: above 90% growth control rate; Level 7: above 80% growth control rate; Level 6: above 70% growth control rate; Level 5: above 60% growth control rate; Level 4: above 50% growth control rate; Level 3: above 20% growth control rate; Level 2: 5%-20% growth control rate; Level 1: below 5% growth control rate. A digest of the protocol: as §1

In a further series the test system is echinochloa. Described as above. Set-up: key: Level 10: completely dead; Level 9: above 95% growth control rate; Level 8: above 90% growth control rate; Level 7: above 80% growth control rate; Level 6: above 70% growth control rate; Level 5: above 60% growth control rate; Level 4: above 50% growth control rate; Level 3: above 20% growth control rate; Level 2: 5%-20% growth control rate; Level 1: below 5% growth control rate. In outline: as §1

The test system of another series is foxtail. The series is described as above. Also on record: key: Level 10: completely dead; Level 9: above 95% growth control rate; Level 8: above 90% growth control rate; Level 7: above 80% growth control rate; Level 6: above 70% growth control rate; Level 5: above 60% growth control rate; Level 4: above 50% growth control rate; Level 3: above 20% growth control rate; Level 2: 5%-20% growth control rate; Level 1: below 5% growth control rate. In outline:
as §1

In a further series the test system is rorippa indica. The series is described as above. Set-up: key: Level 10: completely dead; Level 9: above 95% growth control rate; Level 8: above 90% growth control rate; Level 7: above 80% growth control rate; Level 6: above 70% growth control rate; Level 5: above 60% growth control rate; Level 4: above 50% growth control rate; Level 3: above 20% growth control rate; Level 2: 5%-20% growth control rate; Level 1: below 5% growth control rate. In outline:
as §1

In the next series the test system is corn. The series is described as follows: post-emergence stage experiment, crop (Table 1). In outline: as §1
The next series has as its system wheat. Kind of series: post-emergence stage experiment, crop (Table 1). In outline:
as §1

In another series the test system is rice. The series is described as follows: post-emergence stage experiment, crop (Table 1). Set-up: key: Level 10: completely dead; Level 9: above 95% growth control rate; Level 8: above 90% growth control rate; Level 7: above 80% growth control rate; Level 6: above 70% growth control rate; Level 5: above 60% growth control rate; Level 4: above 50% growth control rate; Level 3: above 20% growth control rate; Level 2: 5%-20% growth control rate; Level 1: below 5% growth control rate. A digest of the protocol: as §1

In the case of `CCc1nn(C)c(O)c1C(=O)c1ccc(C(F)(F)F)c(-n2cccn2)c1Cl` [Compound 130], the “weed control effect, Indian mallow (level)” value in the series with Indian mallow was 0. In addition, the “weed control effect, Bidens bipinnata (level)” value with bidens bipinnata is reported as 3 (Level 3: above 20% growth control rate). Moreover, the “weed control effect, Crab grass (level)” value in the series on crab grass is listed as 3 (Level 3: above 20% growth control rate). Also, the “weed control effect, Echinochloa (level)” value with echinochloa is 10. Further, in the series on foxtail, the “weed control effect, Green foxtail (level)” value is 10. Further, in the series on rorippa indica, the “weed control effect, Rorippa indica (level)” value was 10. The “effect on crop, Corn (level)” value with corn is on record as 4 (Level 4: above 50% growth control rate). Moreover, the “effect on crop, Wheat (level)” value in the series with wheat was 2 (Level 2: 5%-20% growth control rate). For the same compound, the “effect on crop, Rice (level)” value with rice is 7 (Level 7: above 80% growth control rate).

In the case of `CCOC(=O)Oc1c(C(=O)c2ccc(C(F)(F)F)c(-n3cccn3)c2Cl)c(C)nn1C` [Compound 069], in the series on Indian mallow, the “weed control effect, Indian mallow (level)” value worked out at 10. For the same compound, the “weed control effect, Bidens bipinnata (level)” value with bidens bipinnata came out at 10. In the series with crab grass, the “weed control effect, Crab grass (level)” value was 3 (Level 3: above 20% growth control rate). Further, the “weed control effect, Echinochloa (level)” value in the series with echinochloa was 6 (Level 6: above 70% growth control rate). For the same compound, the “weed control effect, Green foxtail (level)” value in the series on foxtail is on record as 10. In the series with rorippa indica, the “weed control effect, Rorippa indica (level)” value is 0. Further, the “effect on crop, Corn (level)” value with corn is on record as 0. Moreover, the “effect on crop, Wheat (level)” value with wheat was determined as 0. In addition, the “effect on crop, Rice (level)” value with rice is 5 (Level 5: above 60% growth control rate).

Turning to `CCn1nc(C2CC2)c(C(=O)c2ccc(C(F)(F)F)c(N3CCCC3=O)c2Cl)c1OC(=O)c1cn(C)nc1C` [Compound 105], the “weed control effect, Indian mallow (level)” value in the series on Indian mallow is reported as 9 (Level 9: above 95% growth control rate). Besides, the “weed control effect, Bidens bipinnata (level)” value with bidens bipinnata is recorded as 10. Moreover, the “weed control effect, Crab grass (level)” value with crab grass was found to be 10. In the series with echinochloa, the “weed control effect, Echinochloa (level)” value came to 10. For the same compound, the “weed control effect, Green foxtail (level)” value with foxtail worked out at 10. For the same compound, in the series on rorippa indica, the “weed control effect, Rorippa indica (level)” value amounted to 10. Further, the “effect on crop, Corn (level)” value in the series on corn is on record as 5 (Level 5: above 60% growth control rate). The “effect on crop, Wheat (level)” value in the series with wheat is listed as 5 (Level 5: above 60% growth control rate). In the series with rice, the “effect on crop, Rice (level)” value was determined as 10.

Take `Cc1cc(C)n(-c2c(C(F)(F)F)ccc(C(=O)c3c(C)nn(C)c3OC(=O)c3cn(C)nc3C)c2Cl)n1` [Compound 094]: the “weed control effect, Indian mallow (level)” value with Indian mallow was 3 (Level 3: above 20% growth control rate). Besides, the “weed control effect, Bidens bipinnata (level)” value in the series with bidens bipinnata was 2 (Level 2: 5%-20% growth control rate). For the same compound, the “weed control effect, Crab grass (level)” value in the series on crab grass is reported as 3 (Level 3: above 20% growth control rate). Moreover, the “weed control effect, Echinochloa (level)” value with echinochloa is recorded as 1 (Level 1: below 5% growth control rate). Further, the “weed control effect, Green foxtail (level)” value in the series with foxtail was 1 (Level 1: below 5% growth control rate). In addition, in the series on rorippa indica, the “weed control effect, Rorippa indica (level)” value turned out to be 0. Besides, the “effect on crop, Corn (level)” value in the series on corn is on record as 1 (Level 1: below 5% growth control rate). In addition, in the series with wheat, the “effect on crop, Wheat (level)” value came to 0. Also, in the series on rice, the “effect on crop, Rice (level)” value worked out at 0.

In the case of `CCn1ncc(C(=O)c2ccc(C(F)(F)F)c(-n3cccn3)c2Cl)c1OC(=O)c1cn(C)nc1C` [Compound 127], the “weed control effect, Indian mallow (level)” value in the series on Indian mallow was determined as 10. Moreover, the “weed control effect, Bidens bipinnata (level)” value in the series on bidens bipinnata is 10. Besides, in the series on crab grass, the “weed control effect, Crab grass (level)” value is recorded as 3 (Level 3: above 20% growth control rate). Also, in the series on echinochloa, the “weed control effect, Echinochloa (level)” value was 10. Also, in the series with foxtail, the “weed control effect, Green foxtail (level)” value is 10. Besides, the “weed control effect, Rorippa indica (level)” value in the series on rorippa indica is given as 10. In the series on corn, the “effect on crop, Corn (level)” value is given as 1 (Level 1: below 5% growth control rate). The “effect on crop, Wheat (level)” value in the series with wheat is 1 (Level 1: below 5% growth control rate). For the same compound, in the series on rice, the “effect on crop, Rice (level)” value is 7 (Level 7: above 80% growth control rate).

On to `CCOC(=O)Oc1c(C(=O)c2ccc(C(F)(F)F)c(-n3ccc(C)n3)c2Cl)c(C)nn1C` [Compound 078], for which the “weed control effect, Indian mallow (level)” value in the series on Indian mallow was 10. In addition, the “weed control effect, Bidens bipinnata (level)” value in the series on bidens bipinnata was determined as 10. Also, the “weed control effect, Crab grass (level)” value with crab grass is listed as 4 (Level 4: above 50% growth control rate). The “weed control effect, Echinochloa (level)” value in the series on echinochloa was 7 (Level 7: above 80% growth control rate). Also, the “weed control effect, Green foxtail (level)” value with foxtail is on record as 7 (Level 7: above 80% growth control rate). Further, the “weed control effect, Rorippa indica (level)” value with rorippa indica was found to be 0. Further, in the series with corn, the “effect on crop, Corn (level)” value was 0. In the series on wheat, the “effect on crop, Wheat (level)” value was 0. Also, the “effect on crop, Rice (level)” value with rice is recorded as 4 (Level 4: above 50% growth control rate).

Consider `CCc1nn(CC)c(O)c1C(=O)c1ccc(C(F)(F)F)c(N2CCCCCC2=O)c1Cl` [Compound 122], for which, in the series with Indian mallow, the “weed control effect, Indian mallow (level)” value is 5 (Level 5: above 60% growth control rate). For the same compound, the “weed control effect, Bidens bipinnata (level)” value in the series on bidens bipinnata was 5 (Level 5: above 60% growth control rate). In the series with crab grass, the “weed control effect, Crab grass (level)” value is 3 (Level 3: above 20% growth control rate). In addition, the “weed control effect, Echinochloa (level)” value in the series with echinochloa is 9 (Level 9: above 95% growth control rate). For the same compound, the “weed control effect, Green foxtail (level)” value with foxtail was 10. The “weed control effect, Rorippa indica (level)” value with rorippa indica turned out to be 0. Also, the “effect on crop, Corn (level)” value with corn was found to be 0. Moreover, in the series with wheat, the “effect on crop, Wheat (level)” value was 1 (Level 1: below 5% growth control rate). Further, the “effect on crop, Rice (level)” value in the series on rice is 5 (Level 5: above 60% growth control rate).

Take `Cc1cnn(-c2c(C(F)(F)F)ccc(C(=O)c3cnn(C)c3O)c2Cl)c1` [Compound 080]: the “weed control effect, Indian mallow (level)” value in the series on Indian mallow is on record as 7 (Level 7: above 80% growth control rate). Also, the “weed control effect, Bidens bipinnata (level)” value in the series with bidens bipinnata was 8 (Level 8: above 90% growth control rate). The “weed control effect, Crab grass (level)” value with crab grass is 6 (Level 6: above 70% growth control rate). Also, the “weed control effect, Echinochloa (level)” value in the series with echinochloa is given as 5 (Level 5: above 60% growth control rate). Besides, the “weed control effect, Green foxtail (level)” value in the series on foxtail was 10. Also, in the series on rorippa indica, the “weed control effect, Rorippa indica (level)” value is reported as 7 (Level 7: above 80% growth control rate). In addition, the “effect on crop, Corn (level)” value in the series on corn was 3 (Level 3: above 20% growth control rate). For the same compound, the “effect on crop, Wheat (level)” value with wheat is 2 (Level 2: 5%-20% growth control rate). In addition, the “effect on crop, Rice (level)” value in the series with rice is given as 1 (Level 1: below 5% growth control rate).

On to `CCc1nn(CC)c(O)c1C(=O)c1ccc(C(F)(F)F)c(-n2cc(C)cn2)c1Cl` [Compound 142], for which the “weed control effect, Indian mallow (level)” value in the series with Indian mallow is 5 (Level 5: above 60% growth control rate). The “weed control effect, Bidens bipinnata (level)” value in the series with bidens bipinnata is reported as 5 (Level 5: above 60% growth control rate). For the same compound, in the series on crab grass, the “weed control effect, Crab grass (level)” value is 2 (Level 2: 5%-20% growth control rate). Besides, the “weed control effect, Echinochloa (level)” value in the series with echinochloa came to 10. In addition, the “weed control effect, Green foxtail (level)” value in the series on foxtail was 6 (Level 6: above 70% growth control rate). The “weed control effect, Rorippa indica (level)” value with rorippa indica is given as 3 (Level 3: above 20% growth control rate). For the same compound, in the series on corn, the “effect on crop, Corn (level)” value is given as 3 (Level 3: above 20% growth control rate). In addition, the “effect on crop, Wheat (level)” value in the series on wheat is reported as 2 (Level 2: 5%-20% growth control rate). The “effect on crop, Rice (level)” value in the series on rice is on record as 7 (Level 7: above 80% growth control rate).
